Values of other authors in US12486292B2, “Prodrug platform useful to deliver amines, amides and phenols” (Changchun Changcheng Pharmaceutical Technology Co., LTD, priority 2019, dated 2025).

Conditions: phase I human clinical trials, oral dosing

In the case of `CCCC(CCC)C(=O)Nc1ccn([C@@H]2O[C@H](CO)[C@@H](O)C2(F)F)c(=O)n1` [LY2334737], the Hepatotoxicity is listed as “observed in some patients”.
